This passage reports anti-viral activity and stability results from US10385067B2, “Sodium (2R,5S,13aR)-7,9-dioxo-10-((2,4,6-trifluorobenzyl)carbamoyl)-2,3,4,5,7,9,13,13a-octahydro-2,5-methanopyrido[1′,2′:4,5]pyrazino[2,1-b][1,3]oxazepin-8-olate” (Gilead Sciences, Inc., priority 2014, dated 2019).

The structures appear in SMILES notation.

One data set relates to HIV. The conditions noted are these: as discussed in co-pending U.S. Ser. No. 14/133,855 and PCT US2013/076367; cited from earlier work.
The nature of data set [1]: Stability on storage under accelerated conditions. In kind it is physicochemical. To be noted: after four weeks of storage under accelerated conditions. The method, then:
The stability of sodium (2R,5S,13aR)-7,9-dioxo-10-((2,4,6-trifluorobenzyl)carbamoyl)-2,3,4,5,7,9,13,13a-octahydro-2,5-methanopyrido[1′,2′:4,5]pyrazino[2,1-b][1,3]oxazepin-8-olate Form I was tested. […] In Table 5, AN refers to area normalization and is the relative peak area of the active with respect to other impurities and components contained in the sample. LS refers to labile strength and is the amount of active present relative to the theoretical amount.

On to `O=C(NCc1c(F)cc(F)cc1F)c1cn2c(c(O)c1=O)C(=O)N1[C@H]3CC[C@H](C3)O[C@@H]1C2` [Formula I, (2R,5S,13aR)-8-hydroxy-7,9-dioxo-N-(2,4,6-trifluorobenzyl)-2,3,4,5,7,9,13,13a-octahydro-2,5-methanopyrido[1′,2′:4,5]pyrazino[2,1-b][1,3]oxazepine-10-carboxamide], for which the anti-viral activity entry in the data set with HIV is reported as “demonstrates anti-viral activity”.
`O=C(NCc1c(F)cc(F)cc1F)c1cn2c(c([O-])c1=O)C(=O)N1[C@H]3CC[C@H](C3)O[C@@H]1C2.[Na+]` [Formula II Form I, sodium (2R,5S,13aR)-7,9-dioxo-10-((2,4,6-trifluorobenzyl)carbamoyl)-2,3,4,5,7,9,13,13a-octahydro-2,5-methanopyrido[1′,2′:4,5]pyrazino[2,1-b][1,3]oxazepin-8-olate]: the stability entry in data set [1] is given as “stable”.
